The test addresses T1, JAK3 (Homo sapiens, UniProt P52333).
T1 construct: The Ramos B-cell line was acquired from ATCC (ATCC Catalog No. CRL-1596); host or cells: Ramos B-cell line (human)
T1 sequence (P52333 1-1124): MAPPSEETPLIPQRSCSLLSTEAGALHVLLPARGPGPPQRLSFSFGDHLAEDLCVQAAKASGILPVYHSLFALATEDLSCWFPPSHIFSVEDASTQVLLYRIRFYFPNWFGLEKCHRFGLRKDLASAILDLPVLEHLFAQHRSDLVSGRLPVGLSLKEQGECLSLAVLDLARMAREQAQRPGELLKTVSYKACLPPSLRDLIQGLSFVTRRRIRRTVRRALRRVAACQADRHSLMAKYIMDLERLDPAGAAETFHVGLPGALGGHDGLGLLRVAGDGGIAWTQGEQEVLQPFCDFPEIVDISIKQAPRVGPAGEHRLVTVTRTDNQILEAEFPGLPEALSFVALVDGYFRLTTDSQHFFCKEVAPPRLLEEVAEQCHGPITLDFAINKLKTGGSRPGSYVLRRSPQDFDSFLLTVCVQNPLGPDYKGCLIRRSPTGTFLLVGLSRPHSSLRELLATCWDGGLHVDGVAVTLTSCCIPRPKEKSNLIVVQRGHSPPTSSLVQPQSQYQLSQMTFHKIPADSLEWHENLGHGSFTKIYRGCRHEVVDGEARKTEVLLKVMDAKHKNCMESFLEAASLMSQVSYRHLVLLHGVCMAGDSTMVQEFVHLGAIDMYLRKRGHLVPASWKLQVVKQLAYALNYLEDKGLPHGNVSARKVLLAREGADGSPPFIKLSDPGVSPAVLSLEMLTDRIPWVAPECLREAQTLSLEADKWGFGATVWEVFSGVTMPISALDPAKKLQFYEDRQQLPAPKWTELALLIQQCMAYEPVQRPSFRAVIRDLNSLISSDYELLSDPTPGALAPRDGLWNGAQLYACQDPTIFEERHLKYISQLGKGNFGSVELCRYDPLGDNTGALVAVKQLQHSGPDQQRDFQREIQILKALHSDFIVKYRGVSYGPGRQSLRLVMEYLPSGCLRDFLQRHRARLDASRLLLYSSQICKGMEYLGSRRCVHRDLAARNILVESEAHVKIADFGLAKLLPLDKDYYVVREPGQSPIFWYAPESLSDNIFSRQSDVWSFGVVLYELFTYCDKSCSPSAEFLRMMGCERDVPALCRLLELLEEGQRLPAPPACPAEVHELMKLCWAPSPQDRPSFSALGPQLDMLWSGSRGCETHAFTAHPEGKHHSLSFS
The test can be described thus: Assay for CD23 expression on Ramos B-cells stimulated by IL-4 (Table IV: ability to inhibit JAK3 activity). The format is cell-based. The settings on record: tested under conditions described in Example 3 (so in the source). The essentials: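 IL-4-induced CD23 surface expression on human Ramos B cells, detected by flow cytometry after 20–24 h stimulation (IL-4 final 50 units/mL). Compound or DMSO added 1 h beforehand at 37 °C; cells kept in RPMI with 5% serum.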

The structures appear in SMILES notation. Where a name gives a salt, the structure may show the parent alone.

In general, IC50 refers to the concentration that inhibits the measured activity by half. A higher IC50 goes with lower potency.

Consider `C=Cc1cccc(Nc2ncc(C)c(Nc3ccc4oc(=O)[nH]c4c3)n2)c1` [Compound I-65, 5-[5-Methyl-2-(3-vinyl-phenylamino)-pyrimidin-4-ylamino]-3H-benzooxazol-2-one trifluoroacetate salt], for which the IC50 is < 500 nM.

For `Cc1cc(Nc2ncc(F)c(Nc3ccc4oc(=O)[nH]c4c3)n2)cc(C)c1C#N` [Compound I-70, 4-(5-fluoro-4-(2-oxo-2,3-dihydrobenzo[d]oxazol-5-ylamino)pyrimidin-2-ylamino)-2,6-dimethylbenzonitrile], the IC50 is < 500 nM.

`COc1cc(Nc2ncc(F)c(Nc3cc(F)c4oc(=O)[nH]c4c3)n2)cc(C)c1C` [Compound I-112, 7-fluoro-5-(5-fluoro-2-(3-methoxy-4,5-dimethylphenylamino)pyrimidin-4-ylamino)benzo[d]oxazol-2(3H)-one trifluoroacetate salt]: the IC50 is < 500 nM.

Regarding `Cc1ccc(Nc2ncc(F)c(Nc3ccc4oc(=O)[nH]c4c3)n2)cc1C#N` [Compound I-1, 5-(5-fluoro-4-(2-oxo-2,3-dihydrobenzo[d]oxazol-5-ylamino)pyrimidin-2-ylamino)-2-methylbenzonitrile formate salt], the IC50 is < 500 nM.

Molecule `COc1cc(Nc2ncc(C)c(Nc3ccc4oc(=O)[nH]c4c3)n2)c(F)cc1C` [Compound I-122, 5-(2-(2-fluoro-5-methoxy-4-methylphenylamino)-5-methylpyrimidin-4-ylamino)benzo[d]oxazol-2(3H)-one trifluoroacetate salt] had an IC50 of 500 to 5000 nM.

In turn, `COc1cccc(Nc2ncc(F)c(Nc3ccc4oc(=O)[nH]c4c3)n2)c1F` [Compound I-20, 5-(5-fluoro-2-(2-fluoro-3-methoxyphenylamino)pyrimidin-4-ylamino)benzo[d]oxazol-2(3H)-one trifluoroacetate salt] yielded an IC50 of 500 to 5000 nM.

With `Cc1cnc(Nc2cc(C)c(C(=O)O)c(C)c2)nc1Nc1ccc2oc(=O)[nH]c2c1` [Compound I-140, N2-(4-carboxy-3,5-dimethyl)phenyl-5-methyl-N4-(2-oxo-2,3-dihydro-1,3-benzoxazol-5-yl)-2,4-pyrimidinediamine], the IC50 was 500 to 5000 nM.

`COc1cc(Nc2ncc(F)c(Nc3ccc4oc(=O)[nH]c4c3)n2)cc(OC)c1C` [Compound I-194, 5-(2-(3,5-dimethoxy-4-methylphenylamino)-5-fluoropyrimidin-4-ylamino)benzo[d]oxazol-2(3H)-one trifluoroacetate salt] showed a half-inhibitory concentration (IC50) of 500 to 5000 nM.

With `Cc1cc(Nc2ncc(CN3CCCC3)c(Nc3ccc4oc(=O)[nH]c4c3)n2)cc(C)c1C` [Compound I-98, 5-(2-(3,4,5-trimethylphenylamino)-5-((pyrrolidin-1-yl)methyl)pyrimidin-4-ylamino)benzo[d]oxazol-2(3H)-one], the IC50 was in the range of 5000 to 10000 nM.

On to `COc1cccc(Nc2ncc(C)c(Nc3ccc4oc(=O)[nH]c4c3)n2)n1` [II-20, N2-(6-methoxypyridin-2-yl)-5-methyl-N4-(2-oxo-2,3-dihydro-1,3-benzoxazol-5-yl)-2,4-pyrimidinediamine], for which the IC50 is < 500 nM.

With `CCN(c1cc(C)c(C)c(C)c1)c1ncc(C)c(Nc2ccc3oc(=O)[nH]c3c2)n1` [Compound I-139, N2-ethyl-N2-(3,4,5-trimethyl)phenyl-5-methyl-N4-(2-oxo-2,3-dihydro-1,3-benzoxazol-5-yl)-2,4-pyrimidinediamine], the 50% inhibitory concentration (IC50) is > 10000 nM.

For `COc1cc(Nc2ncc(F)c(Nc3cc(C)c4oc(=O)[nH]c4c3)n2)cc(C)c1C` [Compound I-110, 5-(5-fluoro-2-(3-methoxy-4,5-dimethylphenylamino)pyrimidin-4-ylamino)-7-methylbenzo[d]oxazol-2(3H)-one trifluoroacetate salt], the IC50 is < 500 nM.

In the case of `C#Cc1cnc(Nc2cc(C)c(C)c(C)c2)nc1Nc1ccc2oc(=O)[nH]c2c1` [Compound I-18, 5-[5-Ethynyl-2-(3,4,5-trimethyl-phenylamino)-pyrimidin-4-ylamino]-3H-benzooxazol-2-one trifluoroacetate salt], the IC50 is < 500 nM.

For `COc1c(C)ccc(Nc2ncc(C)c(Nc3ccc4oc(=O)[nH]c4c3)n2)c1F` [Compound I-29, 5-[2-(2-Fluoro-3-methoxy-4-methyl-phenylamino)-5-methyl-pyrimidin-4-ylamino]-3H-benzooxazol-2-one trifluoroacetate salt], the half-maximal inhibitory concentration (IC50) is < 500 nM.

`COc1cc(Nc2ncc(F)c(Nc3cc(C)c4oc(=O)[nH]c4c3)n2)cc(C)c1F` [Compound I-190, 5-(2-(4-fluoro-3-methoxy-5-methylphenylamino)-5-fluoropyrimidin-4-ylamino)-7-methylbenzo[d]oxazol-2(3H)-one trifluoroacetate salt]: the concentration for half-maximal inhibition (IC50) lay within 500 to 5000 nM.

Turning to `CCN(CC)c1cc(Nc2ncc(C)c(Nc3ccc4oc(=O)[nH]c4c3)n2)cc(C)c1C` [Compound I-84, 5-(2-(3-(diethylamino)-4,5-dimethylphenylamino)-5-methylpyrimidin-4-ylamino)benzo[d]oxazol-2(3H)-one formate salt], the concentration for half-maximal inhibition (IC50) was < 500 nM.

Regarding `COc1cc(Nc2ncc(C)c(Nc3ccc4oc(=O)n(C)c4c3)n2)cc(C)c1C` [Compound I-125, 5-(2-(3-methoxy-4,5-dimethylphenylamino)-5-methylpyrimidin-4-ylamino)-3-methylbenzo[d]oxazol-2(3H)-one trifluoroacetate salt], the IC50 was < 500 nM.

`O=C(NC1CC1)c1ccc(Nc2ncc(F)c(Nc3ccc4oc(=O)[nH]c4c3)n2)cc1` [Compound I-161, N-cyclopropyl-4-(5-fluoro-4-(2-oxo-2,3-dihydrobenzo[d]oxazol-5-ylamino)pyrimidin-2-ylamino)benzamide formate salt]: the IC50 is < 500 nM.

Regarding `CCNC(=O)c1ccc(Nc2ncc(F)c(Nc3ccc4oc(=O)[nH]c4c3)n2)cc1` [Compound I-162, N-ethyl-4-(5-fluoro-4-(2-oxo-2,3-dihydrobenzo[d]oxazol-5-ylamino)pyrimidin-2-ylamino)benzamide formate salt], the IC50 is < 500 nM.

Take `Cc1cnc(Nc2ccc(CC=O)cc2)nc1Nc1ccc2oc(=O)[nH]c2c1` [Compound I-30, {4-[5-Methyl-4-(2-oxo-2,3-dihydro-benzooxazol-5-ylamino)-pyrimidin-2-ylamino]-phenyl}-acetaldehyde]: the IC50 was < 500 nM.

As to `Cc1cnc(Nc2cc(C)c(C)c(C)c2)nc1Nc1ccc2oc(=O)n(COP(=O)(O)OCCN(C)C)c2c1` [Compound I-133, N4-{3-[2-(N,N-dimethylamino)ethoxy]phosphinyloxymethyl-2-oxo-2,3-dihydro-1,3-benzoxazol-5-yl}-5-methyl-N2-(3,4,5-trimethyl)phenyl-2,4-pyrimidinediamine], the concentration for half-maximal inhibition (IC50) was in the range of 5000 to 10000 nM.

Consider `COc1ccc(Nc2ncc(F)c(Nc3ccc4oc(=O)[nH]c4c3)n2)cc1C(F)(F)F` [Compound I-212, 5-fluoro-N2-(4-methoxy-3-trifluoromethyl)phenyl-N4-(2-oxo-2,3-dihydro-1,3-benzoxazol-5-yl)-2,4-pyrimidinediamine], for which the concentration for half-maximal inhibition (IC50) is < 500 nM.

Turning to `Cc1ccc(Nc2ncc(F)c(Nc3ccc4oc(=O)[nH]c4c3)n2)cc1S(C)(=O)=O` [Compound I-167, 5-(2-(4-methyl-3-(methylsulfonyl)phenylamino)-5-fluoropyrimidin-4-ylamino)benzo[d]oxazol-2(3H)-one trifluoroacetate salt], the 50% inhibitory concentration (IC50) is < 500 nM.

In the case of `Cc1cc(Nc2ncc(CN3CCN(C)CC3)c(Nc3ccc4oc(=O)[nH]c4c3)n2)cc(C)c1C` [Compound I-100, 5-(2-(3,4,5-trimethylphenylamino)-5-((4-methylpiperazin-1-yl)methyl)pyrimidin-4-ylamino)benzo[d]oxazol-2(3H)-one], the IC50 lay in the range of 500 to 5000 nM.

Consider `COC(=O)c1cnc(Nc2ccccc2)nc1Nc1ccc2oc(=O)[nH]c2c1` [Compound I-39, 4-(2-oxo-2,3-dihydro-benzooxazol-5-ylamino)-2-phenylamino-pyrimidine-5-carboxylic acid methyl ester trifluoroacetate salt], for which the IC50 was > 10000 nM.

In the case of `COc1cc(Nc2ncc(Cl)c(Nc3ccc4oc(=O)[nH]c4c3)n2)ccc1C` [Compound I-32, 5-(5-chloro-2-(3-methoxy-4-methylphenylamino)pyrimidin-4-ylamino)benzo[d]oxazol-2(3H)-one trifluoroacetate salt], the concentration for half-maximal inhibition (IC50) is < 500 nM.
